Laboratory results from DBAASP.
Converted amounts (≈) assume the structure as drawn. Blank lines part the entries; values can stand above or below the compound they belong to.

What was measured:
Assay in all cases: ≥ marks a high value that may be exact or a test limit, other limits are often not marked, values filed in µg/mL are converted to µM
[1] = tested on: Aspergillus flavus KCTC 6905
[2] = tested on: Aspergillus fumigatus KCTC 6145
[3] = tested on: Bacillus subtilis KCTC 1998
[4] = tested on: Candida albicans KCTC 7270
[5] = tested on: Candida krusei CCARM 14017
[6] = tested on: Candida parapsilosis CCARM 14016
[7] = tested on: Candida tropicalis KCTC 7221
[8] = tested on: Escherichia coli ATCC 25922
[9] = tested on: Fusarium oxysporum KCTC 16909
[10] = tested on: Fusarium solani KCTC 6326
[11] = tested on: Fusarium verticillioides KCTC 6149
[12] = tested on: Pseudomonas aeruginosa ATCC 15692
[13] = tested on: Pseudomonas aeruginosa
[14] = tested on: Staphylococcus aureus ATCC 25923
[15] = tested on: Staphylococcus aureus
[16] = tested on: Trichophyton rubrum KCTC 6345
[17] = tested on: Trichosporon beigelii KCTC 7707
[18] = tested on: Acinetobacter baumannii CCARM 12005
[19] = tested on: Acinetobacter baumannii CCARM 12035
[20] = tested on: Acinetobacter baumannii CCARM 12036
[21] = tested on: Acinetobacter baumannii CCARM 12037
[22] = tested on: Bacillus subtilis KCTC 3068
[23] = tested on: Enterococcus faecalis KCTC 2011
[24] = tested on: Escherichia coli CCARM 1229
[25] = tested on: Escherichia coli CCARM 1238
[26] = tested on: Escherichia coli KCTC 1682
[27] = tested on: Pseudomonas aeruginosa CCARM 2002
[28] = tested on: Pseudomonas aeruginosa CCARM 2095
[29] = tested on: Pseudomonas aeruginosa CCARM 2163
[30] = tested on: Pseudomonas aeruginosa KCTC 1637
[31] = tested on: Salmonella typhimurium CCARM 8003
[32] = tested on: Salmonella typhimurium CCARM 8007
[33] = tested on: Salmonella typhimurium CCARM 8009
[34] = tested on: Salmonella typhimurium KCTC 1926
[35] = tested on: Staphylococcus aureus CCARM 3089
[36] = tested on: Staphylococcus aureus CCARM 3108
[37] = tested on: Staphylococcus aureus CCARM 3126
[38] = tested on: Staphylococcus aureus KCTC 1621
[39] = tested on: Bacillus subtilis CMCC 63501
[40] = tested on: Micrococcus luteus CMCC 28001
[41] = tested on: Ralstonia solanacearum ATCC 33192
[42] = tested on: Salmonella enterica subsp. enterica serovar Typhi CMCC 50071
[43] = tested on: Shigella dysenteriae CMCC 51252
[44] = tested on: Streptococcus pneumoniae ATCC 49619
[45] = tested on: Acinetobacter baumannii ATCC 17978
[46] = tested on: Bacillus subtilis ATCC 13933
[47] = tested on: Candida albicans ATCC 90028
[48] = tested on: Escherichia coli ATCC 700928
[49] = tested on: Escherichia coli NCTC 12923
[50] = tested on: Klebsiella pneumoniae NCTC 13368
[51] = tested on: Pseudomonas aeruginosa PAO1
[52] = tested on: Staphylococcus aureus ATCC 9144
[53] = tested on: Staphylococcus aureus USA 300

MIC [1]: 2.83 µM (≈ 6.38 µg/mL)
MIC [2]: 2.83 µM (≈ 6.38 µg/mL)
MIC [3]: 2 µM (≈ 4.51 µg/mL)
MIC [4]: 16 µM (≈ 36.1 µg/mL)
MIC [5]: 8 µM (≈ 18 µg/mL)
MIC [6]: 16 µM (≈ 36.1 µg/mL)
MIC [7]: 4 µM (≈ 9.02 µg/mL)
MIC [8]: 1 µM (≈ 2.26 µg/mL)
MIC [9]: 1.41 µM (≈ 3.19 µg/mL)
MIC [10]: 1 µM (≈ 2.26 µg/mL)
MIC [11]: 1.41 µM (≈ 3.19 µg/mL)
MIC [12]: 2 µM (≈ 4.51 µg/mL)
MIC [13]: 1.41 µM (≈ 3.19 µg/mL)
MIC [14]: 2 µM (≈ 4.51 µg/mL)
MIC [15]: 1.41 µM (≈ 3.19 µg/mL)
MIC [16]: 1.41 µM (≈ 3.19 µg/mL)
MIC [17]: 1 µM (≈ 2.26 µg/mL)
Compound: CC[C@H](C)[C@H](NC(=O)[C@H](CC(C)C)NC(=O)[C@H](CCCCN)NC(=O)[C@H](CCCCN)NC(=O)[C@H](CC(C)C)NC(=O)[C@H](CCCN=C(N)N)NC(=O)[C@H](CCCCN)NC(=O)[C@@H](N)Cc1ccccc1)C(=O)N[C@@H](CO)C(=O)N[C@@H](Cc1c[nH]c2ccccc12)C(=O)N[C@H](C(=O)N[C@@H](CCCCN)C(=O)N[C@@H](CCCN=C(N)N)C(=O)N[C@@H](CCCCN)C(=O)N[C@@H](CCCN=C(N)N)C(=O)N[C@@H](CCC(N)=O)C(=O)N[C@@H](CCC(N)=O)C(N)=O)[C@@H](C)CC [FKRLKKLISWIKRKRQQ]

MIC [18]: 2 µM (≈ 4.6 µg/mL)
MIC [19]: 2 µM (≈ 4.6 µg/mL)
MIC [20]: 2 µM (≈ 4.6 µg/mL)
MIC [21]: 2 µM (≈ 4.6 µg/mL)
MIC [22]: 4 µM (≈ 9.21 µg/mL)
MIC [23]: 16 µM (≈ 36.8 µg/mL)
MIC [24]: 4 µM (≈ 9.21 µg/mL)
MIC [25]: 2 µM (≈ 4.6 µg/mL)
MIC [26]: 2 µM (≈ 4.6 µg/mL)
MIC [27]: 2 µM (≈ 4.6 µg/mL)
MIC [28]: 2 µM (≈ 4.6 µg/mL)
MIC [29]: 2 µM (≈ 4.6 µg/mL)
MIC [30]: 4 µM (≈ 9.21 µg/mL)
MIC [31]: 4 µM (≈ 9.21 µg/mL)
MIC [32]: 2 µM (≈ 4.6 µg/mL)
MIC [33]: 2 µM (≈ 4.6 µg/mL)
MIC [34]: 2 µM (≈ 4.6 µg/mL)
MIC [35]: 8 µM (≈ 18.4 µg/mL)
MIC [36]: 4 µM (≈ 9.21 µg/mL)
MIC [37]: 8 µM (≈ 18.4 µg/mL)
MIC [38]: 4 µM (≈ 9.21 µg/mL)
Compound: CC[C@H](C)[C@H](NC(=O)[C@H](CCCCN)NC(=O)[C@H](Cc1c[nH]c2ccccc12)NC(=O)[C@@H](N)CCCN=C(N)N)C(=O)N[C@@H](Cc1ccccc1)C(=O)N[C@@H](CCCCN)C(=O)N[C@@H](CCCCN)C(=O)N[C@H](C(=O)N1CCC[C@H]1C(=O)N[C@@H](CCCCN)C(=O)N[C@@H](Cc1ccccc1)C(=O)N[C@@H](CC(C)C)C(=O)N[C@@H](Cc1cnc[nH]1)C(=O)N[C@@H](CO)C(=O)N[C@@H](C)C(=O)N[C@@H](CCCCN)C(=O)N[C@@H](CCCCN)C(=O)N[C@@H](Cc1ccccc1)C(N)=O)[C@@H](C)CC [RWKIFKKIPKFLHSAKKF]

MIC [39]: 6.26 µM (≈ 12.5 µg/mL)
MIC [8]: 6.26 µM (≈ 12.5 µg/mL)
MIC [40]: 12.5 µM (≈ 25 µg/mL)
MIC [41]: 6.26 µM (≈ 12.5 µg/mL)
MIC [42]: 3.13 µM (≈ 6.25 µg/mL)
MIC [43]: 1.57 µM (≈ 3.14 µg/mL)
MIC [14]: 12.5 µM (≈ 25 µg/mL)
MIC [44]: 6.26 µM (≈ 12.5 µg/mL)
Compound: CC[C@H](C)[C@H](NC(=O)[C@H](Cc1c[nH]c2ccccc12)NC(=O)[C@@H](N)CCSC)C(=O)N[C@H](C(=O)N[C@@H](CC(N)=O)C(=O)NCC(=O)NCC(=O)N[C@H](C(=O)N[C@@H](C)C(=O)N[C@@H](CC(N)=O)C(=O)N[C@@H](Cc1c[nH]c2ccccc12)C(=O)N[C@@H](Cc1ccc(O)cc1)C(=O)N[C@@H](Cc1ccccc1)C(=O)N[C@H](C(=O)N[C@@H](CC(C)C)C(=O)N[C@@H](C)C(=O)N[C@@H](CCCN=C(N)N)C(=O)O)C(C)C)C(C)C)[C@@H](C)O [MWITNGGVANWYFVLAR]

MIC [45]: ≥ 59.5 µM
MIC [46]: ≥ 55.8 µM
MIC [47]: 2.2 µM (≈ 4.73 µg/mL)
MIC [48]: ≥ 55.8 µM
MIC [49]: ≥ 59.5 µM
MIC [50]: ≥ 59.5 µM
MIC [51]: > 59.5 µM
MIC [52]: ≥ 59.5 µM
MIC [53]: ≥ 59.5 µM
Compound: CC[C@H](C)[C@H](NC(=O)CNC(=O)[C@@H](N)CCCCN)C(=O)N[C@@H](CCCN=C(N)N)C(=O)NCC(=O)N[C@@H](Cc1ccc(O)cc1)C(=O)N[C@@H](CCCCN)C(=O)NCC(=O)NCC(=O)N[C@@H](Cc1ccc(O)cc1)C(=O)N[C@@H](CCCCN)C(=O)NCC(=O)N[C@@H](C)C(=O)N[C@@H](Cc1ccccc1)C(=O)N[C@@H](CCCCN)C(=O)N[C@@H](CCC(N)=O)C(=O)N[C@H](C(=O)N[C@@H](CCCCN)C(=O)N[C@@H](Cc1ccc(O)cc1)C(=O)O)[C@@H](C)O [KGIRGYKGGYKGAFKQTKY]
